Reference: ChEMBL document CHEMBL1909046, “DrugMatrix in vitro pharmacology data”

How the values were obtained:
[1] = target: T1, Alpha-2A adrenergic receptor (Homo sapiens, UniProt P08913); assay type: cell membranes, Sf9, Membrane; further: in other assays of this panel Not Active means under 50% inhibition at 10 µM
T1 sequence (P08913 whole entry): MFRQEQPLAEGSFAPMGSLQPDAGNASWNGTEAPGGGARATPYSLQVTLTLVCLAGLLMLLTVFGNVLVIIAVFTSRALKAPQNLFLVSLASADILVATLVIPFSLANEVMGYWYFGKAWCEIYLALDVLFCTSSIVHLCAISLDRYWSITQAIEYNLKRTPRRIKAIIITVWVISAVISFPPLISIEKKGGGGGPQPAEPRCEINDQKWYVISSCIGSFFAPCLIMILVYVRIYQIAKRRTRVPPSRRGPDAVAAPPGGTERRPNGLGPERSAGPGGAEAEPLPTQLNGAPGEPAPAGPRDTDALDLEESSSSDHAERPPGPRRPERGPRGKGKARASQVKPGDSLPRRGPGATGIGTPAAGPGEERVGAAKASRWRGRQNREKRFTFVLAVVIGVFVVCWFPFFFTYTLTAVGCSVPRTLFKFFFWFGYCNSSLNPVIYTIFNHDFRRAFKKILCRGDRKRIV

Adenosine receptor A3 = target: T2, Adenosine receptor A3 (Homo sapiens, UniProt P0DMS8); assay type: cell membranes, CHO-K1, Membrane;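 further: radioligand binding assay with AB-MECA serving as the labeled ligand; in other assays of this panel Not Active means under 50% inhibition at 10 µM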
T2 sequence (P0DMS8 whole entry): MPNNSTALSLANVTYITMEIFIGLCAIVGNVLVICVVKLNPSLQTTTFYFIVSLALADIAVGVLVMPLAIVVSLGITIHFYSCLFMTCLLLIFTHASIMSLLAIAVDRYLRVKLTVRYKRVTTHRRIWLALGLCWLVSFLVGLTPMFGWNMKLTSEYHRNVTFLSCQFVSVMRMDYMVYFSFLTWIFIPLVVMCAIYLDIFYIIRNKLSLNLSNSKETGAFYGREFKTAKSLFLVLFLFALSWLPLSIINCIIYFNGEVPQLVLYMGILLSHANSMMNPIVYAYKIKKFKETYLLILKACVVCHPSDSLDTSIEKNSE

[2] = target: Tyrosine-protein kinase Lck (Homo sapiens, UniProt P06239); experiment: DRUGMATRIX: Protein Tyrosine Kinase, LCK enzyme inhibition (substrate: Poly(Glu:Tyr)); assay type: cell-based, Insect cells; details: Not Active = under 50% inhibition at 10 µM
Chain of Tyrosine-protein kinase Lck (P06239 whole entry): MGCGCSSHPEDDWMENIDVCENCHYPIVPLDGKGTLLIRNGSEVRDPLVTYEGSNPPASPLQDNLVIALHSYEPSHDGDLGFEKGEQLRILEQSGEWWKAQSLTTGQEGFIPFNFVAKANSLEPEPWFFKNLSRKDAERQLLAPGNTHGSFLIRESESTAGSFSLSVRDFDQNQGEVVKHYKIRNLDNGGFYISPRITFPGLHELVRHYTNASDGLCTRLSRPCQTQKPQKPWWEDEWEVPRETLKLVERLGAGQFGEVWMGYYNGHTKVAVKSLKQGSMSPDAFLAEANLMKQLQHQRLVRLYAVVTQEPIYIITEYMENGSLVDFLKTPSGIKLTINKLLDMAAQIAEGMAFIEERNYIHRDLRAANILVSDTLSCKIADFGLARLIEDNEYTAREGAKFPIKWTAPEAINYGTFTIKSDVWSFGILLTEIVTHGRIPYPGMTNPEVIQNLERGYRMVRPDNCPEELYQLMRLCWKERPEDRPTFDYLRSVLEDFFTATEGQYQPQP

Nitric oxide synthase 1 = Nitric oxide synthase 1 (Rattus norvegicus, UniProt P29476); assay type: tissue-based, Cerebellum; further: in other assays of this panel Not Active means under 50% inhibition at 10 µM
Chain of Nitric oxide synthase 1 (P29476 whole entry): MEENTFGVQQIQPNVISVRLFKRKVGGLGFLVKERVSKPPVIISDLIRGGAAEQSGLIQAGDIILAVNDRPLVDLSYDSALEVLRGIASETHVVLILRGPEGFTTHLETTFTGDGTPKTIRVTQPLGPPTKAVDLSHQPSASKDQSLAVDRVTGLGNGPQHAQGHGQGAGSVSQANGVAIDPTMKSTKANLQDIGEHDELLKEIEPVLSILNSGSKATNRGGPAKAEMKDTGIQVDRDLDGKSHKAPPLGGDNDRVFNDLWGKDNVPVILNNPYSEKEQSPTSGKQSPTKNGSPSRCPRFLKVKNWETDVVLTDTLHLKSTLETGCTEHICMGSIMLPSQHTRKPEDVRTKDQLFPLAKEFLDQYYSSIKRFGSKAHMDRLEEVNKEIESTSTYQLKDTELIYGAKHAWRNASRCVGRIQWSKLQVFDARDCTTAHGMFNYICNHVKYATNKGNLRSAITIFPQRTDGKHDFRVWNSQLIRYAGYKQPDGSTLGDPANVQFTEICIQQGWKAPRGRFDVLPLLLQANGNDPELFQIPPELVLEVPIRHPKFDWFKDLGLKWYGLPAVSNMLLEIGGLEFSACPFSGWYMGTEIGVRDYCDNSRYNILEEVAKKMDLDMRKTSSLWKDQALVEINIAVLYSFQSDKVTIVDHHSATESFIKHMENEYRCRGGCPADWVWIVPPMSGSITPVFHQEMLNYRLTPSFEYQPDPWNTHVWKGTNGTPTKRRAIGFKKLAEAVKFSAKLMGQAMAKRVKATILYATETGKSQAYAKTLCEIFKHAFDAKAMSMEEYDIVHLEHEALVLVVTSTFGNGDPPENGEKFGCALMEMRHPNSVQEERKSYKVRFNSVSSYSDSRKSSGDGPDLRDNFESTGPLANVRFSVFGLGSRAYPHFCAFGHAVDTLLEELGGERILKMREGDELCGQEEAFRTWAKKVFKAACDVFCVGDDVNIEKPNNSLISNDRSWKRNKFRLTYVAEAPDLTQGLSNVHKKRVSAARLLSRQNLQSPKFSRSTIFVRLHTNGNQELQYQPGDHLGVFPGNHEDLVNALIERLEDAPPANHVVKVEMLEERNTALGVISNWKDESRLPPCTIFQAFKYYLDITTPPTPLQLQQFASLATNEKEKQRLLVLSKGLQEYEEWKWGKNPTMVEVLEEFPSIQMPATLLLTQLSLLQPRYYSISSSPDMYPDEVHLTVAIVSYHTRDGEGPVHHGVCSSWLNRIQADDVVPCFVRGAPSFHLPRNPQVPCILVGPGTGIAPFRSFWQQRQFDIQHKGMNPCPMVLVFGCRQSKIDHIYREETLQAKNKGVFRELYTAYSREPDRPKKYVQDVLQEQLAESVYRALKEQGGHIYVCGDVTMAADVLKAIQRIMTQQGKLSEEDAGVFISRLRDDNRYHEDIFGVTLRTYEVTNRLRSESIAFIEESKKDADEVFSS

[3] = target: Mitogen-activated protein kinase 3 (Homo sapiens, UniProt P27361); experiment: DRUGMATRIX: Protein Serine/Threonine Kinase, ERK1 enzyme inhibition (substrate: Myelin Basic Protein); design: species or system Escherichia coli; details: Not Active = under 50% inhibition at 10 µM
Chain of Mitogen-activated protein kinase 3 (P27361 whole entry): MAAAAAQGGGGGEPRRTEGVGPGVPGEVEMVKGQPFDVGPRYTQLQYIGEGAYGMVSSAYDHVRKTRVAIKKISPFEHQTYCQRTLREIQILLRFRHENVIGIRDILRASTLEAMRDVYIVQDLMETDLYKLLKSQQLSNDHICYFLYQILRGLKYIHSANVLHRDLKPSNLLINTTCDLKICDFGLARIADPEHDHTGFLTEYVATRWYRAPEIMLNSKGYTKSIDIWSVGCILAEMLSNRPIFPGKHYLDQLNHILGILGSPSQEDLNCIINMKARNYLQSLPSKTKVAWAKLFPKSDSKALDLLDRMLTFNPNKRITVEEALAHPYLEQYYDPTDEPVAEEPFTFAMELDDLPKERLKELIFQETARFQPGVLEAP

[4] = target: T3, C-X-C chemokine receptor type 2 (Homo sapiens, UniProt P25025); assay type: cell membranes, Membrane; details: cho-k1; further: in other assays of this panel Not Active means under 50% inhibition at 10 µM
T3 sequence (P25025 whole entry): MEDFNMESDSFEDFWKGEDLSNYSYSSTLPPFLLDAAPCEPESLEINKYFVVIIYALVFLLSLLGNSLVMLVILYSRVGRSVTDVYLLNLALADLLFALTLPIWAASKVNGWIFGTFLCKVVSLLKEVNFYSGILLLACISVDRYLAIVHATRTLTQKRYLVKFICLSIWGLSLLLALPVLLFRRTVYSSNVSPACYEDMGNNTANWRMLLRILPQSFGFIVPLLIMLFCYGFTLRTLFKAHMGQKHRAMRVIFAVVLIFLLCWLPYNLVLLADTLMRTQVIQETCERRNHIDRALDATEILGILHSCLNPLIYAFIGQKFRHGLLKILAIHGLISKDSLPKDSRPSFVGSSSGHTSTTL

Compound | IC50 ([1]; sf9) | IC50 (Adenosine receptor A3; cho-k1) | IC50 ([2]; insect cells) | IC50 (Nitric oxide synthase 1) | IC50 [3] | IC50 [4] | other results
CCCCC(=O)N(Cc1ccc(-c2ccccc2-c2nnn[nH]2)cc1)[C@H](C(=O)O)C(C)C | Not Active | Not Active | Not Active | Not Active | Not Active | Not Active | 
O=C(O)COc1ccc(C(=O)c2cccs2)c(Cl)c1Cl | Not Active | Not Active | Not Active | Not Active | Not Active | Not Active | 
CN1[C@@H]2CC[C@H]1C[C@@H](OC(c1ccccc1)c1ccccc1)C2 [BENZTROPINE] |  | Not Active | Not Active | Not Active | Not Active | Not Active | 
C[C@@](Cc1ccc(O)c(O)c1)(NN)C(=O)O.O [CARBIDOPA] | Not Active | Not Active |  | Not Active | Not Active | Not Active | IC50 ([2]; read-out: IC50): 6.8 µM
CN1CCN(C2=Nc3cc(Cl)ccc3Nc3ccccc32)CC1 [CLOZAPINE] |  | Not Active | Not Active | Not Active | Not Active | Not Active | 
CC(C)NC[C@@H](O)COc1cccc2ccccc12 [DEXPROPRANOLOL] | Not Active | Not Active | Not Active | Not Active | Not Active | Not Active | 
CC(C)NC[C@H](O)COc1cccc2ccccc12 [LEVOPROPRANOLOL] | Not Active | Not Active | Not Active | Not Active | Not Active | Not Active | 
O=C(O)CCCCC1CCSS1 (stereo not drawn) [LIPOIC ACID, ALPHA] | Not Active | Not Active | Not Active | Not Active | Not Active | Not Active | 
CN(C)C(=O)C(CCN1CCC(O)(c2ccc(Cl)cc2)CC1)(c1ccccc1)c1ccccc1 [LOPERAMIDE] | Not Active | Not Active | Not Active | Not Active | Not Active | Not Active | 
Clc1ccc(COC(Cn2ccnc2)c2ccc(Cl)cc2Cl)c(Cl)c1 (configuration not stated) [MICONAZOLE] |  |  | Not Active | Not Active | Not Active | Not Active | IC50 ([1]; read-out: IC50): 3.97 µM; Ki ([1]; read-out: Ki): 1.49 µM
Oc1ccc2c3c1O[C@H]1[C@@H](O)CC[C@@]4(O)[C@@H](C2)N(CC2CCC2)CC[C@]314 [NALBUPHINE] | Not Active | Not Active | Not Active | Not Active | Not Active | Not Active | 
C[C@]12C=CC(=O)C=C1CC[C@@H]1[C@@H]2C(=O)C[C@@]2(C)[C@H]1CC[C@]2(O)C(=O)CO [PREDNISONE] | Not Active | Not Active | Not Active | Not Active | Not Active | Not Active | 
OCCOCCN1CCN(C2=Nc3ccccc3Sc3ccccc32)CC1 [QUETIAPINE] |  | Not Active | Not Active | Not Active | Not Active | Not Active | 
COC(=O)[C@H]1[C@H]2C[C@@H]3c4[nH]c5cc(OC)ccc5c4CCN3C[C@H]2C[C@@H](OC(=O)c2cc(OC)c(OC)c(OC)c2)[C@@H]1OC [RESERPINE] | Not Active | Not Active | Not Active | Not Active | Not Active | Not Active | 
O=C(O)c1ccccc1O [SALICYLIC ACID] | Not Active | Not Active | Not Active | Not Active | Not Active | Not Active | 
C[S+]([O-])c1ccc(-c2nc(-c3ccncc3)c(-c3ccc(F)cc3)[nH]2)cc1 (configuration not stated) [SB-203580] | Not Active | Not Active |  | Not Active |  | Not Active | 
CC1CCC(NC(=O)N(CCCl)N=O)CC1 (configuration not stated) [SEMUSTINE] |  | Not Active | Not Active | Not Active | Not Active | Not Active | IC50 ([1]; read-out: IC50): 4.81 µM; Ki ([1]; read-out: Ki): 1.8 µM
O=C1C[C@@H]2OCC=C3CN4CC[C@]56c7ccccc7N1[C@H]5[C@H]2[C@H]3C[C@H]46 [STRYCHNINE] | Not Active | Not Active | Not Active | Not Active | Not Active | Not Active | 
C[N+](C)(C)CCOC(=O)CCC(=O)OCC[N+](C)(C)C.[Cl-].[Cl-] [SUCCINYLCHOLINE CHLORIDE] | Not Active | Not Active | Not Active | Not Active | Not Active | Not Active | 
Nc1ccc(S(=O)(=O)NC(=O)c2ccccc2)cc1 [SULFABENZAMIDE] | Not Active | Not Active | Not Active | Not Active | Not Active | Not Active | 
CCCCCCCCNC(C)C(O)c1ccc(SC(C)C)cc1 (configuration not stated) [SULOCTIDIL] |  |  | Not Active | Not Active | Not Active | Not Active | IC50 ([1]; read-out: IC50): 2.02 µM; Ki ([1]; read-out: Ki): 0.759 µM; IC50 (Adenosine receptor A3; read-out: IC50): 3.71 µM; Ki (Adenosine receptor A3; read-out: Ki): 2.09 µM
O=c1[nH]c(=O)n(C2CCCO2)cc1F (configuration not stated) [TEGAFUR] | Not Active | Not Active | Not Active | Not Active | Not Active | Not Active | 
CC(=N)S [THIOACETAMIDE] | Not Active | Not Active | Not Active | Not Active | Not Active | Not Active | 
Cc1ccc(C(=O)c2ccc(CC(=O)O)n2C)cc1 [TOLMETIN] | Not Active | Not Active | Not Active | Not Active | Not Active | Not Active | 
CC(=O)OCC(COC(C)=O)OC(C)=O [TRIACETIN] | Not Active | Not Active | Not Active | Not Active | Not Active | Not Active | 
CN1CCN(CCCN2c3ccccc3Sc3ccc(C(F)(F)F)cc32)CC1 [TRIFLUOPERAZINE] | Not Active | Not Active | Not Active | Not Active | Not Active | Not Active | 
TRANSPLATIN | Not Active |  |  | Not Active | Not Active | Not Active | Ki ([1]; sf9): Not Active; IC50 (Adenosine receptor A3; cho-k1, read-out: IC50): 0.989 µM; Ki (Adenosine receptor A3; cho-k1, read-out: Ki): 0.559 µM; IC50 ([2]; insect cells, read-out: IC50): 2.72 µM; Ki (Nitric oxide synthase 1): Not Active; Ki [3]: Not Active; Ki [4]: Not Active
ZIRCONIUM(IV) CHLORIDE | Not Active | Not Active | Not Active | Not Active | Not Active | Not Active | Ki ([1]; sf9): Not Active; Ki (Adenosine receptor A3; cho-k1): Not Active; Ki ([2]; insect cells): Not Active; Ki (Nitric oxide synthase 1): Not Active; Ki [3]: Not Active; Ki [4]: Not Active
